Results on five compounds are retold here after ChEMBL document CHEMBL1125004, “Chemistry and pharmacology of the non-benzodiazepine anxiolytic enciprazine and related compounds” (1990).

Calls of active or inactive are those of the source. No cut-off for these calls is given here.

Experiment [1] has as its system Rattus norvegicus. As to the kind of experiment: Effect on piloerection after oral administration of 100 mg/kg in rat was determined; '-' No effect. It is filed as functional, organism-based. Details: dose 100 mg/kg.
Experiment [2] concerns Rattus norvegicus. Put plainly: Effect on restlessness after oral administration of 50 mg/kg in rat was determined; '-' No effect. It is filed as functional, organism-based. Set-up: dose 50 mg/kg.
Experiment [3] is described as follows: Ratio of ED50 (ethanol) to that of ED50 (fighting). The experiment is classed as functional.
The test system of experiment [4] is Rattus norvegicus. As to the kind of experiment: Effect on tremor after oral administration of 50 mg/kg in rat was determined; '-' No effect. The experiment is classed as functional, organism-based. Set-up: dose 50 mg/kg.
In experiment [5] the test system is Rattus norvegicus. Put plainly: Effect on jumping after oral administration of 50 mg/kg in rat was determined; '-' No effect. The experiment is classed as functional, organism-based. Details: dose 50 mg/kg.
The test system of experiment [6] is Rattus norvegicus. As to the kind of experiment: Effect on salivation after oral administration of 100 mg/kg in rat was determined; '-' No effect. It is filed as functional, organism-based. Details: dose 100 mg/kg.
Experiment [7] relates to Rattus norvegicus. As to the kind of experiment: Effect on piloerection after oral administration of 50 mg/kg in rat was determined; '-' No effect. Set-up: dose 50 mg/kg. It is filed as functional, organism-based.
Experiment [8] concerns Rattus norvegicus. Put plainly: Effect on jumping after oral administration of 100 mg/kg in rat was determined; '-' No effect. The experiment is classed as functional, organism-based. Details: dose 100 mg/kg.
Experiment [9] concerns Rattus norvegicus. As to the kind of experiment: Effect on restlessness after oral administration of 100 mg/kg in rat was determined; '-' No effect. Set-up: dose 100 mg/kg. The experiment is classed as functional, organism-based.
Experiment [10] can be described thus: Ratio of ED50 (hexobarbital) to that of ED50 (fighting). It is filed as functional.
The test system of experiment [11] is Rattus norvegicus. Put plainly: Effect on tremor after oral administration of 100 mg/kg in rat was determined; '-' No effect. Set-up: dose 100 mg/kg. It is filed as functional, organism-based.
For experiment [12], the system named is Rattus norvegicus. Put plainly: Effect on diarrheal after oral administration of 50 mg/kg in rat was determined; '-' No effect. It is filed as functional, organism-based. Set-up: dose 50 mg/kg.
Experiment [13] deals with Rattus norvegicus. As to the kind of experiment: Effect on salivation after oral administration of 50 mg/kg in rat was determined; '-' No effect. The experiment is classed as functional, organism-based. Set-up: dose 50 mg/kg.
The nature of experiment [14]: Ratio of ED50 (rotarod) to that of ED50 (fighting). The experiment is classed as functional. A general note: The rotarod test checks motor coordination on a turning rod.
Experiment [15] concerns Rattus norvegicus. Put plainly: Effect on diarrheal after oral administration of 100 mg/kg in rat was determined; '-' No effect. The experiment is classed as functional, organism-based. Details: dose 100 mg/kg.
Experiment [16] concerns Monkey. Put plainly: Tested for ability to maintain self-administration after administration of 0.3 mg/kg in monkey 3038 (1-2). The experiment is classed as functional, Cercopithecidae.
Experiment [17] relates to Monkey. Put plainly: Tested for ability to maintain self-administration after administration of 0.03 mg/kg in monkey 2036 Range (2-3). It is filed as functional, Cercopithecidae.
In experiment [18] the test system is Monkey. As to the kind of experiment: Tested for ability to maintain self-administration after administration of 0.03 mg/kg in monkey 2037 Range (7-9). The experiment is classed as functional, Cercopithecidae.
The test system of experiment [19] is Monkey. As to the kind of experiment: Tested for ability to maintain self-administration after administration of 0.3 mg/kg in monkey 9083 (1-4). It is filed as functional, Cercopithecidae.
Experiment [20] relates to Monkey. As to the kind of experiment: Tested for ability to maintain self-administration after administration of 0.03 mg/kg in monkey 9083 Range (7-11). It is filed as functional, Cercopithecidae.
Experiment [21] relates to Monkey. Put plainly: Tested for ability to maintain self-administration after administration of 0.003 mg/kg in monkey 2037 Range (2-6). It is filed as functional, Cercopithecidae.
For experiment [22], the system named is Monkey. Put plainly: Tested for ability to maintain self-administration after administration of 0.3 mg/kg in monkey 3017 (0-1). The experiment is classed as functional, Cercopithecidae.
The test system of experiment [23] is Monkey. Put plainly: Tested for ability to maintain self-administration after administration of 1 mg/kg in monkey 9079 (0-3). It is filed as functional, Cercopithecidae.
Experiment [24] relates to Monkey. Put plainly: Tested for ability to maintain self-administration after administration of 0.001 mg/kg in monkey 3038 Range (2-5). It is filed as functional, Cercopithecidae.
Experiment [25] relates to Monkey. As to the kind of experiment: Tested for ability to maintain self-administration after administration of 0.003 mg/kg in monkey 9079 Range (1-6). It is filed as functional, Cercopithecidae.
The test system of experiment [26] is Monkey. As to the kind of experiment: Tested for ability to maintain self-administration after administration of 0.003 mg/kg in monkey 9083 Range (13-21). It is filed as functional, Cercopithecidae.
The subject of experiment [27] is Monkey. As to the kind of experiment: Tested for ability to maintain self-administration after administration of 0.003 mg/kg in monkey 3038 Range (1-7). The experiment is classed as functional, Cercopithecidae.
Experiment [28] deals with Monkey. As to the kind of experiment: Tested for ability to maintain self-administration after administration of 0.003 mg/kg in monkey 2036 Range (5-9). It is filed as functional, Cercopithecidae.
Experiment [29] relates to Monkey. As to the kind of experiment: Tested for ability to maintain self-administration after administration of 0.03 mg/kg in monkey 3017 Range (1-7). The experiment is classed as functional, Cercopithecidae.
The test system of experiment [30] is Monkey. Put plainly: Tested for ability to maintain self-administration after administration of 0.3 mg/kg in monkey 2036 (1-5). It is filed as functional, Cercopithecidae.
The test system of experiment [31] is Monkey. As to the kind of experiment: Tested for ability to maintain self-administration after administration of 0.3 mg/kg in monkey 9079 (0-2). It is filed as functional, Cercopithecidae.
The test system of experiment [32] is Monkey. Put plainly: Tested for ability to maintain self-administration after administration of 0.03 mg/kg in monkey 9079 Range (2-24). The experiment is classed as functional, Cercopithecidae.
Experiment [33] relates to Monkey. Put plainly: Tested for ability to maintain self-administration after administration of 0.3 mg/kg in monkey 2037 (0-4). The experiment is classed as functional, Cercopithecidae.
The test system of experiment [34] is Monkey. Put plainly: Tested for ability to maintain self-administration after administration of 0.01 mg/kg in monkey 9079 Range (1-3). The experiment is classed as functional, Cercopithecidae.
The subject of experiment [35] is Monkey. Put plainly: Tested for ability to maintain self-administration after administration of 0.03 mg/kg in monkey 3038 Range (1-10). It is filed as functional, Cercopithecidae.
Experiment [36] has as its system Monkey. Put plainly: Tested for ability to maintain self-administration after administration of 0.003 mg/kg in monkey 3017 Range (1-2). It is filed as functional, Cercopithecidae.
For experiment [37], the species on record is Mus musculus. As to the kind of experiment: Effect on hexobarbital induced sleep was determined in hexobarbital potentiation test; Range. The experiment is classed as functional.
For experiment [38], the species on record is Mus musculus. Put plainly: Effect on alcohol induced sleep was determined in ethanol potentiation test; Range. The experiment is classed as functional.
The test system of experiment [39] is Mus musculus. As to the kind of experiment: Antiaggressive anxiolytic activity in the electroshock-induced fighting test in mice (po); Range (10.32-18.72). It is filed as functional.
The species entered for experiment [40] is Mus musculus. As to the kind of experiment: Ataxic activity in mice by rotarod test; Range (64.3-92.1). The experiment is classed as functional.
Experiment [41] has as its system Mus musculus. Put plainly: Antiaggressive anxiolytic activity in the electroshock-induced fighting test in mice (po); Range (9.6-16.7). It is filed as functional.
In experiment [42] the test system is Mus musculus. Put plainly: Antiaggressive anxiolytic activity in the electroshock-induced fighting test in mice (po); Range (0.9-1.8). The experiment is classed as functional.
Experiment [43] relates to Mus musculus. Put plainly: Effect on hexobarbital induced sleep was determined in hexobarbital potentiation test (po); Range (36.0-59.6). The experiment is classed as functional.
The species entered for experiment [44] is Mus musculus. As to the kind of experiment: Effect on alcohol induced sleep was determined in ethanol potentiation test; Range (26.6-77.9). The experiment is classed as functional.
Experiment [45] relates to Rattus norvegicus. As to the kind of experiment: Antiaggressive anxiolytic activity in the hexagonal maze test in rat after ip administration of 0.3 mg/kg. Particulars: route intraperitoneal. It is filed as functional.
The species entered for experiment [46] is Mus musculus. As to the kind of experiment: Ataxic activity in mice by rotarod test; Range (89.6-160.6). It is filed as functional.

Turning to `COc1ccccc1N1CCN(CC(O)COc2cc(OC)c(OC)c(OC)c2)CC1` (centres undefined), the Effect entry in the experiment with Rattus norvegicus [1], in the experiment with Rattus norvegicus [2], with Rattus norvegicus [4], in the experiment with Rattus norvegicus [5], in the experiment with Rattus norvegicus [6] and in the experiment on Rattus norvegicus [7] was “inactive” in each case. Further, the Effect result in the experiment with Rattus norvegicus [8], in the experiment with Rattus norvegicus [9], in the experiment on Rattus norvegicus [11], with Rattus norvegicus [12], in the experiment with Rattus norvegicus [13] and in the experiment on Rattus norvegicus [15] was “inactive” each time. Further, the Therapeutic index in experiment [3] was 32.5; in experiment [10], 33; in experiment [14], 86.
With `COc1ccccc1N1CCN(CC(O)COc2cc(OC)c(OC)c(OC)c2)CC1` (centres undefined) [ENCIPRAZINE], the Effect worked out at 1.3 in the experiment with Monkey [16]; 2.3 with Monkey [17]; 7.7 with Monkey [18]; 2.7 in the experiment on Monkey [19]; 9 in the experiment with Monkey [20]; 4.3 in the experiment on Monkey [21]. Also, the Effect in the experiment with Monkey [22] is listed as 0.3; in the experiment with Monkey [23], 1.3; with Monkey [24] it was 3.5; in the experiment on Monkey [25], 3; in the experiment on Monkey [26], 17.7; in the experiment with Monkey [27], 4. The Effect with Monkey [28] is 7; in the experiment on Monkey [29], 4.3; in the experiment with Monkey [30], 3; in the experiment on Monkey [31] it was 1; with Monkey [32] it was 13.7; in the experiment on Monkey [33] it was 2. Moreover, the Effect was 2 with Monkey [34], 4.3 with Monkey [35] and 1.7 in the experiment with Monkey [36].
On to `O=C1CC2(CCCC2)CC(=O)N1CCCCN1CCN(c2ncccn2)CC1` [BUSPIRONE], for which the ED50 in the experiment listed under Mus musculus [37] amounted to 54.5 mg/kg; in the experiment listed under Mus musculus [38] it was 62.8 mg/kg; in the experiment on Mus musculus [39], 14.5 mg/kg; in the experiment listed under Mus musculus [40], 77 mg/kg. Further, the Therapeutic index in [3] was determined as 0.8; in [10] it was 0.7; in experiment [14], 5.3.
In the experiment with Mus musculus [41], `COc1cc(OCC(O)CN2CCN(c3ccc(C)c(C)c3)CC2)cc(OC)c1OC.Cl` (centres undefined) registered a 50% effective dose (ED50) of 13 mg/kg.
`COc1ccccc1N1CCN(CC(O)COc2cc(OC)c(OC)c(OC)c2)CC1.Cl` (centres undefined): the ED50 with Mus musculus [42] worked out at 1.4 mg/kg; with Mus musculus [43], 46.4 mg/kg; in the experiment listed under Mus musculus [44], 45.5 mg/kg; in the experiment filed under Mus musculus [46], 120 mg/kg. In addition, in the experiment with Rattus norvegicus [45], the Prolongation is given as 3.2%.

What is called ED50 is the midpoint of the dose-response relation.
